{"source": "patent US5472979A", "about": "“1,2,3,4-tetrahydronaphthalene compounds” (Adir et Compagnie, priority 1993, dated 1995)", "key": {"[1]": {"tested_on": "platelet aggregation induced by the TXA2 agonist, U46619", "assay": "Platelet aggregation in rabbits (PRP, U46619-induced)", "format": "cell-based", "settings": "Oryctolagus cuniculus, rabbit PRP, 37° C., antagonist 3 min before U46619, read-out: IC50 Rabbit (inhibition of U46619-induced platelet aggregation)", "experimental": "Rabbits (2-3 kg) are anesthetized with pentobarbital sodium (30 mg/kg i.v.). After cannulation of the left carotid artery, blood is withdrawn onto sodium citrate (0.109M) (1 vol. of citrate per 9 vol. of blood).\nPlatelet-rich plasma (PRP) is obtained by centrifugation (20° C.) at 250 g for 20 minutes, and platelet-poor plasma (PPP) by centrifugation at 1000 g (10 min). The number of platelets (PL) in the PRP is adjusted to between 300-350,000 PL/mm^3 by dilution with autologous PPP. The PRP is stored at the temperature of the room until the time of the test, and is used within 4 hours following withdrawal.\nPlatelet aggregation is carried out at 37° C. in siliconed glass tubes using an aggregometer. The PRP and PLs are stirred at 1000 rpm (revolutions per minute). In order to study the activity of thromboxane antagonists, the PRP is incubated for 1 min at 37° C., and the antagonist is then added for a period of 3 min before addition of the agonist U46619 […]. The final volume in the cell is then […]. The intensity of platelet aggregation is established by taking the maximum amplitude of the aggregation plots and is expressed as a percentage light transmission (% T)."}, "[2]": {"tested_on": "platelet aggregation induced by the TXA2 agonist, U46619", "assay": "Platelet aggregation in dogs (PRP, adrenalin + U46619-induced)", "format": "cell-based", "settings": "Canis lupus familiaris, 0.05 h, dog PRP, 37° C., 3 min, adrenalin (10 μM) then U46619, read-out: IC50 Dog (inhibition of aggregation to U46619 + adrenalin)", "experimental": "After anesthetizing the animal with pentobarbital sodium (30 mg/kg i.v.), arterial blood is withdrawn onto sodium citrate (0.109M) (1 vol. of citrate per 9 vol. of blood). The platelet-rich plasma (PRP) is obtained after centrifugation (20° C.) at 200 g for 10 minutes. The number of platelets in the PRP is, on average, 300,000 PL/mm^3 The PRP is stored at the temperature of the room until the time of the test, and is used within 4 hours following withdrawal.\nThe PRP is incubated at 37° C. in the presence of the antagonist to be tested for 3 minutes. Aggregation is subsequently obtained by the addition of adrenalin (10μM) followed by that of U46619 […] 30 seconds later."}, "[3]": {"target": "T1, platelet TXA2 receptors (Homo sapiens, UniProt P21731)", "T1 construct": "platelet membranes, prepared from washed, ground and centrifuged human platelets; from tissue; host or cells: human platelets (membranes)", "T1 sequence (P21731 1-343)": "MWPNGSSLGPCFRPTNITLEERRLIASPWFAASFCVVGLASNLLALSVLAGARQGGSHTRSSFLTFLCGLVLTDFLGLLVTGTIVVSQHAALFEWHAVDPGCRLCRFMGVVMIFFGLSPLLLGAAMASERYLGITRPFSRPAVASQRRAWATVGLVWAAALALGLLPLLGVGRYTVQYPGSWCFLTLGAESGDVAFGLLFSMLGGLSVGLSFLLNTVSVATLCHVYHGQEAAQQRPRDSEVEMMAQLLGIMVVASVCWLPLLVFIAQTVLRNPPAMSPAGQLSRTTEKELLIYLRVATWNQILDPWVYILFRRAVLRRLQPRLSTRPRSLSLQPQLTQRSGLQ", "assay": "Specific binding to human platelet membranes (3H-SQ29548 competition)", "settings": "25° C., Cheng and Prusoff", "experimental": "The experiments take place at a temperature of 25° C. in a final reaction volume of 0.2 ml in the presence of 0.1 mg of platelet membranes, prepared from washed, ground and centrifuged human platelets. Determination of the activity of the products of the invention is made by competition experiments, in which increasing concentrations of product are placed in the presence of a fixed concentration of ^3 H-SQ29548. This protocol makes it possible to produce inhibition curves for each antagonist studied. The 50% inhibitory concentration is determined by non-linear regression by the \"Simplex\" method described by M. S. Caceci et al., (Byte, 340-362, May 1984) calculated according to the mass action law model of C. Michaelis et al. (Biochem. Zeitschrift, 49, 333-369, 1913). The inhibition constant is then determined using the formula of Cheng and Prusoff (Biochem. Pharmacol., 22, 3099-3108, 1973)."}, "[4]": {"tested_on": "platelet aggregation induced by the TXA2 agonist, U46619", "assay": "Platelet aggregation in man (PRP, U46619-induced)", "format": "cell-based", "settings": "human PRP, procedure of Example 19, U46619 0.3 mM, read-out: IC50 (inhibition of U46619-induced platelet aggregation)", "experimental": "Dog platelets respond weakly to U46619 alone. […] The PRP is incubated at 37° C. in the presence of the antagonist to be tested for 3 minutes. Aggregation is subsequently obtained by the addition of adrenalin (10μM) followed by that of U46619 […] 30 seconds later.\nVenous blood is obtained from human volunteers who have taken no aspirin for at least 14 days preceding the experiment. Blood is withdrawn onto sodium citrate (0.109M) (1 vol. of citrate per 9 vol. of blood). Platelet-rich plasma (PRP) is obtained after centrifugation (20° C.) at 200 g for 10 minutes. The number of platelets is, on average, 250,000 PL/mm^3. The PRP is stored at the temperature of the room until the time of the test, and is used within 2 hours following withdrawal. The antagonists are tested according to the procedure described in Example 19, using U46619 at the concentration of […]."}, "[5]": {"tested_on": "platelet aggregation of U46619", "assay": "ex vivo platelet aggregation in dogs after oral administration", "set-up": "species or system dog", "experimental": "The experiments are carried out on non-anesthetized dogs. After applying a tourniquet and introduction of a needle into the cephalic vein, blood is withdrawn onto sodium citrate (0.109M). The blood is stored at the temperature of the room. Platelet aggregation is measured in the total blood using an impedance probe in an aggregometer. The pro-aggregating activity of the thromboxane receptor agonist, U46619, is tested in the presence of adrenalin (10 μM). The products of the invention and the reference substances are administered to dogs orally after performing the control test. Blood samples are subsequently withdrawn at determined times: t=30 min, 1 h, 2 h, 4 h, 6 h, 24 h, 48 h, etc. until the aggregation activity of U46619 has fully returned."}, "[6]": {"tested_on": "guinea pig carotid artery", "assay": "Experimental thrombosis in guinea pig carotid artery", "format": "in vivo", "settings": "i.v. injection of 100 μg/kg, n=3; 10±2 CFV/20 min before the treatment; control 9±1 then 8±1", "experimental": "The technique recently described by Roux et al., Thrombosis and Haemostasis, 71, 252-256 (1994), was used in order to measure the anti-thrombotic effect of our products. Male guinea pigs (390 to 420 g) were anesthetized with ketamine hydrochloride (90 mg/kg i.m.) and xylazine (12 mg/kg i.m.). A catheter is introduced into the left jugular vein in order to allow the i.v. injection of the substances. The right carotid artery is prepared and a Doppler probe (20 MHz) is installed, which allows the blood flow to be measured. At a distance of two mm from the Doppler probe a subendothelial lesion is produced using a clamp (\"pinching\"). After introduction of this lesion, the blood flow decreases and stops altogether (between 1 and 2 min). When the flow is at zero, the artery is touched, which removes the occlusive thrombus and restores the flow (see Roux et al., 1994). This thrombotic process is repeated and the cyclic decreases in the flow (CFV=cyclic flow variations) are expressed as a number per 20 min. In control carotid arteries (n=4), the CFVs are counted over 2 periods of 20 min: during the first period, 9±1 CFV/20 min are counted; during the second period, 8±1 CFV/20 min are counted. In a group of animals (n=3) treated with the compound of Example 1, 10±2 CFV/20 min are counted before the treatment and 0.3±0.3 CFV/20 min are counted alter an i.v. injection of 100 μg/kg."}}, "note": "Counter-ions that a name gives are not always drawn."}
{"smiles": "Cc1ccc(S(=O)(=O)NC2CCc3c(CCC(=O)O)cccc3C2)cc1", "note": "(stereo not shown) [Example 9, 3-[6-(4-Tolylsulfonylamino)-5,6,7,8-tetrahydronaphth-1-yl]propionic acid]", "values": [{"measurement": "IC50", "setting": "[1]", "value": 320, "unit": "nM"}, {"measurement": "IC50", "setting": "[2]", "value": 15, "unit": "nM"}]}
{"smiles": "O=C(O)CCn1c2c(c3ccccc31)C[C@H](NS(=O)(=O)c1ccc(F)cc1)CC2", "note": "[BAY U3405, reference compound]", "values": [{"measurement": "Ki", "setting": "[3]", "value": 3.61, "unit": "nM"}, {"measurement": "IC50", "setting": "[4]", "value": 180, "unit": "nM"}, {"measurement": "IC50", "setting": "[1]", "value": 1100, "unit": "nM"}, {"measurement": "duration of total inhibition of aggregation ex vivo", "setting": "[5]; 100 μg/kg per os", "value": 6, "unit": "h"}, {"measurement": "IC50", "setting": "[2]", "value": 110, "unit": "nM"}]}
{"smiles": "O=C(O)CCc1cccc2c1OCC(NS(=O)(=O)c1ccc(F)cc1)C2", "note": "(stereo not shown) [Example 17, 3-[3-(4-Fluorophenylsulfonyl)aminochroman-8-yl]propionic acid]", "values": [{"measurement": "IC50", "setting": "[1]", "value": 1100, "unit": "nM"}]}
{"smiles": "Cc1ccc2c(c1CCC(=O)O)CCC(NS(=O)(=O)c1ccc(Cl)cc1)C2", "note": "(stereo not shown) [Example 1, 3-{6-[(4-Chlorophenylsulfonyl)amino]-2-methyl-5,6,7,8-tetrahydronaphth-1-yl}propionic acid, sodium salt]", "values": [{"measurement": "Ki", "setting": "[3]", "value": 0.96, "unit": "nM"}, {"measurement": "cyclic flow variations (CFV) after treatment", "setting": "[6]", "value": "0.3±0.3", "unit": "CFV/20 min"}, {"measurement": "IC50", "setting": "[4]", "value": 84, "unit": "nM"}, {"measurement": "IC50", "setting": "[1]", "value": 240, "unit": "nM"}, {"measurement": "duration of complete inhibition of U46619 platelet aggregation ex vivo", "setting": "[5]; 10 μg/kg per os", "value": "at least 3 days"}, {"measurement": "duration of inhibition of U46619 platelet aggregation ex vivo", "setting": "[5]; 100 μg/kg per os", "value": "at least 8 days"}, {"measurement": "inhibition of U46619 platelet aggregation ex vivo (words, compared with 100 μg/kg per os, at least 8 days)", "setting": "[5]; 3 mg/kg per os", "value": "same result"}, {"measurement": "duration of complete inhibition of U46619 platelet aggregation ex vivo", "setting": "[5]; 10 to 3000 μg/kg, orally", "value": "at least 3 days"}, {"measurement": "duration of complete inhibition of U46619 platelet aggregation ex vivo, highest dose", "setting": "[5]; highest dose of 10 to 3000 μg/kg, orally", "value": "up to 11 days"}, {"measurement": "IC50", "setting": "[2]", "value": 28, "unit": "nM"}]}
{"smiles": "Cc1ccc2c(c1CCC(=O)O)CCC(NS(=O)(=O)c1cccc3ccccc13)C2", "note": "(stereo not shown) [Example 8, 3-[6-(1 -Naphthylsulfonylamino)-2-methyl-5,6,7,8-tetrahydronaphth-1-yl]propionic acid]", "values": [{"measurement": "IC50", "setting": "[2]", "value": 150, "unit": "nM"}]}
{"smiles": "Cc1cc(CCC(=O)O)c2c(c1)CC(NS(=O)(=O)c1ccc(F)cc1)CC2", "note": "(stereo not shown) [Example 11, 3-{6-[(4-Fluorophenylsulfonyl)amino]-3-methyl-5,6,7,8-tetrahydronaphth-1-yl}propionic acid]", "values": [{"measurement": "IC50", "setting": "[1]", "value": 670, "unit": "nM"}, {"measurement": "IC50", "setting": "[2]", "value": 56, "unit": "nM"}]}
{"smiles": "Cc1ccc2c(c1CCC(=O)O)CCC(NS(=O)(=O)c1ccc(F)cc1)C2", "note": "(stereo not shown) [Example 3, 3-{6-[(4-Fluorophenylsulfonyl)amino]-2-methyl-5,6,7,8-tetrahydronaphth-1-yl}propionic acid, sodium salt]", "values": [{"measurement": "IC50", "setting": "[1]", "value": 270, "unit": "nM"}, {"measurement": "IC50", "setting": "[2]", "value": 10, "unit": "nM"}]}
{"smiles": "O=C(O)CCc1cccc2c1OCC(NS(=O)(=O)c1ccc(Cl)cc1)C2", "note": "(stereo not shown) [Example 16, 3-[3-(4-Chlorophenylsulfonyl)amino-8-chromanyl]propionic acid]", "values": [{"measurement": "IC50", "setting": "[1]", "value": 250, "unit": "nM"}, {"measurement": "IC50", "setting": "[2]", "value": 20, "unit": "nM"}]}
